According to publication PMC5779714, “Metallochaperone UreG serves as a new target for design of urease inhibitor: A novel strategy for development of antimicrobials” (PLoS Biology, 2018):
“And” between values parts separate entries of the source, which are not always exact repeats. Identical values can stand only once. Like-named read-outs stand apart in the source and are kept apart here.

Key:
UreG [1] = molecular target: T1, UreG (Helicobacter pylori, UniProt Q09066); experiment: biochemical; assay type: biochemical, H. pylori
Experimental: (§1) A Malachite Green Phosphate Assay Kit (Abcam) was utilized to quantify the hydrolysis of GTP by UreG under various conditions. […] GTPase activity of UreG was triggered through the addition of 10 mM KHCO3, after which the reaction was incubated at 37°C for 30 min; then, the free phosphate from hydrolysis of GTP was determined. […] To eliminate the potential effect of small compounds on malachite green assay, the assay included a subtraction of the absorbance of reaction with the same amounts of compounds but without UreG enzyme for each reading.

urease [2] = experiment: Phenol-hypochlorite urease assay, lysate of E. coli with urease gene cluster excluding ureG (pHP8080ΔG) supplemented with metal-treated UreG
[3] = set-up: method as in PMID 22179820; conditions: cited from earlier work
[4] = molecular target: urease from jack bean, P. mirabilis, and K. aerogenes; conditions: competitive inhibitor; cited from earlier work
UreG [5] = molecular target: T1, UreG
Experimental: as §1
(PNG) Click here for additional data file.

H. pylori urease [6] = molecular target: T2, H. pylori urease (Helicobacter pylori, UniProt P14916+P69996); experiment: cell-based; assay type: cell-based
Target sequence in this assay (P14916 whole entry, looked up): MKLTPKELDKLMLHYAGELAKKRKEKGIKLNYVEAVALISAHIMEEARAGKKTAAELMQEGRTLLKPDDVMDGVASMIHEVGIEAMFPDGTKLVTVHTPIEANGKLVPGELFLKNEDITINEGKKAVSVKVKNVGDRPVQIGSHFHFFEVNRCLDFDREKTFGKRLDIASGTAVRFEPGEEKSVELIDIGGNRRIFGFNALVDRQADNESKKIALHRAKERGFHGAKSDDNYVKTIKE
Target sequence in this assay (P69996 whole entry, looked up): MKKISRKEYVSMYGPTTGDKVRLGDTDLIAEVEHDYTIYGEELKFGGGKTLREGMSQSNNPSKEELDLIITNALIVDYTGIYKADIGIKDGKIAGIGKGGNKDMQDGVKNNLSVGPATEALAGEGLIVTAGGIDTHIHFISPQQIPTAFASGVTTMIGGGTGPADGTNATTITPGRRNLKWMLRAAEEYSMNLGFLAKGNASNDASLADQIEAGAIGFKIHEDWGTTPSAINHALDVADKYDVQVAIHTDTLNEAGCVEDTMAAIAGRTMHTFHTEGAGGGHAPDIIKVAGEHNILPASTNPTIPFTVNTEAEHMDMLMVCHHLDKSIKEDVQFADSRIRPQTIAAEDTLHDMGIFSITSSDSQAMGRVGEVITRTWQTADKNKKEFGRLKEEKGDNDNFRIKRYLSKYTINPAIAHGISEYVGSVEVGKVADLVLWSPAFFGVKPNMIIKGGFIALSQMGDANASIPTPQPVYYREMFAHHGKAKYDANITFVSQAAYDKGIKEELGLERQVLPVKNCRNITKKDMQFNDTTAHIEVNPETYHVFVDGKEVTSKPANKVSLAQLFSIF

urease [7] = molecular target: T3, urease (Proteus mirabilis, UniProt P17086+P17087+P17088); assay type: biochemical
T3 construct: endogenous in cells
T3 sequence (P17087 whole entry): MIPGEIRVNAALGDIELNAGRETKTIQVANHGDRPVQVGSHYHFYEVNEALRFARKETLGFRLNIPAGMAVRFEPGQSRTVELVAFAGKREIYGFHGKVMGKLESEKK
T3 sequence (P17088 whole entry): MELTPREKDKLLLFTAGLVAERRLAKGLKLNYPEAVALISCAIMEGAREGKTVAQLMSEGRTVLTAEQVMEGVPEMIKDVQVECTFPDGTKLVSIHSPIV
T3 sequence (P17086 whole entry): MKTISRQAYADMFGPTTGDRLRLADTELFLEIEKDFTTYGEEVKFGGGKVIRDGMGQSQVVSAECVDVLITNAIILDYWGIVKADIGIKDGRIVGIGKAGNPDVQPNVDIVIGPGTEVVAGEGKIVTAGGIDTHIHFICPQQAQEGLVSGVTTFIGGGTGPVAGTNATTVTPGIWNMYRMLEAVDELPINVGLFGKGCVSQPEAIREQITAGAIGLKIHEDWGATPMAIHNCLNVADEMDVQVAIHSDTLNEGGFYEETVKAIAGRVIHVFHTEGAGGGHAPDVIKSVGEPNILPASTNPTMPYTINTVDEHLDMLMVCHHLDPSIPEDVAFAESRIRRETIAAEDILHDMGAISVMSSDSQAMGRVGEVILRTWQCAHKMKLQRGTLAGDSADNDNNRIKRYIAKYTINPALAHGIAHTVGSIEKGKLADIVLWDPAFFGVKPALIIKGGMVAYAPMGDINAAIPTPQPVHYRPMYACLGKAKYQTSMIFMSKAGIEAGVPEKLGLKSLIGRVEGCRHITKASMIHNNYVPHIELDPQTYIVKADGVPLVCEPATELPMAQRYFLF

urease [8] = molecular target: T4, urease (Pseudomonas aeruginosa, UniProt Q9HUU5+Q9HUU6+Q9HUU8); experiment: Urease activity of extracted P. aeruginosa urease (in vitro); assay type: biochemical
T4 construct: endogenous in cells
T4 sequence (Q9HUU6 whole entry): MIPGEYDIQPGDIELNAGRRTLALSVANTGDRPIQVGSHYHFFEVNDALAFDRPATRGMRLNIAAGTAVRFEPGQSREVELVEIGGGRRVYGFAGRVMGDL
T4 sequence (Q9HUU5 whole entry): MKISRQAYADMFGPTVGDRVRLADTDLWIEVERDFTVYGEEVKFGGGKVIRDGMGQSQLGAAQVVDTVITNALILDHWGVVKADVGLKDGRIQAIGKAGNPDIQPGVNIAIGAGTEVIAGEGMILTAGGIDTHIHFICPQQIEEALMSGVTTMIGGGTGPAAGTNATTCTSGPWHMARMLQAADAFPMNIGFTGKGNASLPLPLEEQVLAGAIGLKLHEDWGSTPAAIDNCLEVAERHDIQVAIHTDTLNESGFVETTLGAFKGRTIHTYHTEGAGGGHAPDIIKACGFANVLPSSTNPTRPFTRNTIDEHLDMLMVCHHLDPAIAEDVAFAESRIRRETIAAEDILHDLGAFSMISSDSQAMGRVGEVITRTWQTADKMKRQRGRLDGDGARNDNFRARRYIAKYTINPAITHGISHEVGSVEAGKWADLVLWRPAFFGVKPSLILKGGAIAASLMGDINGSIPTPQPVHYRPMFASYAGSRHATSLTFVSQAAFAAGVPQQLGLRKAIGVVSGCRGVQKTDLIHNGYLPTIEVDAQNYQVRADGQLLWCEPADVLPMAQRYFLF
T4 sequence (Q9HUU8 whole entry): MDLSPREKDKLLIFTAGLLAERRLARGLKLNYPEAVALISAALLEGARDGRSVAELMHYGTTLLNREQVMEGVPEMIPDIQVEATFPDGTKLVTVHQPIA

urease [9] = system: urease
urease [10] = system: urease; remark: listed apart in the source
urease [11] = system: urease; remark: listed apart in the source
urease [12] = system: urease; remark: listed apart in the source
H. pylori = experiment: Growth of H. pylori in neutral and acidic brucella broth (OD600); assay type: cell-based
[13] = system: AGS cells exposed to H. pylori; experiment: Cell infection model: AGS cells exposed to H. pylori pre-cultured with inhibitors; assay type: cell-based, human; conditions: H. pylori pre-cultured with 10 μM inhibitor 24 h; MOI 20; 24 h infection; Hp alone 28.8%
[14] = system: AGS cells with H. pylori infection; experiment: AGS cells with H. pylori infection, inhibitors administrated to the AGS cells (S20 Fig); assay type: cell-based, human; conditions: 10 μM administrated to AGS cells with H. pylori infection
Text: As expected, low viability of AGS with the supplement of cmpd4 and cmpd8 was observed due to the toxicity of small compounds to mammalian cells. […] (PNG) Click here for additional data file.

urease [15] = system: urease; remark: listed apart in the source
urease [16] = system: urease; remark: listed apart in the source
Target sequence in this assay (P17088 whole entry): as the sequence (P17088 whole entry) above
Target sequence in this assay (P17087 whole entry, further chain): as the sequence (P17087 whole entry) above
Target sequence in this assay (P17086 whole entry, further chain): as the sequence (P17086 whole entry) above

urease [17] = system: urease; remark: listed apart in the source
Target sequence in this assay (Q9HUU5 whole entry): as the sequence (Q9HUU5 whole entry) above
Target sequence in this assay (Q9HUU6 whole entry, further chain): as the sequence (Q9HUU6 whole entry) above
Target sequence in this assay (Q9HUU8 whole entry, further chain): as the sequence (Q9HUU8 whole entry) above

urease [18] = system: urease; remark: listed apart in the source
H. pylori urease [19] = molecular target: T2, H. pylori urease; assay type: biochemical; set-up: endogenous in cells; host or cells: H. pylori strain 26695 or a clinical isolate
Target sequence in this assay (P69996 whole entry): as the sequence (P69996 whole entry, looked up) above
Target sequence in this assay (P14916 whole entry): as the sequence (P14916 whole entry, looked up) above

[20] = molecular target: the molecule itself; experiment: SEC; gel filtration of apo-UreE alone, with or without three molar equivalents of Bi(III) (little effect on the dimer)
[21] = molecular target: the molecule itself; experiment: SEC; Superdex 200 10/300 GL; Ni-loaded UreG (UreG with NiSO4 1x, GTP 10x, MgSO4 1 mM) with 1 mM KHCO3; run with or without two molar equivalents of Bi(III) (as BiNTA), which lowered the dimer peak and gave a high molecular weight oligomer
[22] = increasing amounts of CBS during bacterial growth

[Bi+3] [Bi(III), reference compound]
Normalized GTPase activity(%) (UreG [1]; Ni-UreG+Bix1): 29.0%
Normalized GTPase activity(%) (UreG [1]; Ni-UreG+Bix2): 0.8%
Normalized GTPase activity(%) (UreG [1]; Ni-UreG+Bix3): 1.7%
inhibition of GTPase enzyme activity (UreG [1]; further addition of Bi(III) to Ni-UreG): complete inhibition
Normalized urease activity(%) (urease [2]; Ni-UreG+Bix1, incubation 40 min): 47.6%
Normalized urease activity(%) (urease [2]; Ni-UreG+Bix2, incubation 40 min): 9.3%
Normalized urease activity(%) (urease [2]; Ni-UreG+Bix3, incubation 40 min): 5.8%

O=C([O-])CN(CC(=O)[O-])CC(=O)[O-].[Bi+3] [BiNTA, Bi nitrilotriacetic acid]
log Ka of Bi-NTA [3]: 17.55

OB(O)O [boric acid]
Ki [4]: mM levels

colloidal bismuth subcitrate [CBS]
Normalized GTPase activity(%) (UreG [5]; CBS 20 μM): 50.4%
Normalized GTPase activity(%) (UreG [5]; CBS 50 μM): 22.6%
Normalized GTPase activity(%) (UreG [5]; CBS 100 μM): 35.8%
Normalized GTPase activity(%) (UreG [5]; CBS 200 μM): 20.4%
GTPase activity compared with that without CBS treatment (UreG [5]; [22]): approximately 20%
Normalized urease activity(%) (in vivo) (H. pylori urease [6]; CBS 2.0 μM): 89.4%
Normalized urease activity(%) (in vivo) (H. pylori urease [6]; CBS 5.0 μM): 57.6%
Normalized urease activity(%) (in vivo) (H. pylori urease [6]; CBS 10.0 μM): 35.6%
Normalized urease activity(%) (in vivo) (H. pylori urease [6]; CBS 20.0 μM): 10.2%
drop in urease activity (H. pylori urease [6]; CBS 20 μM in culture medium): ca. 90%
Normalized urease activity(%) (H. pylori urease [6]; log(CBS[μM]) 0): 94.7245%
Normalized urease activity(%) (H. pylori urease [6]; log(CBS[μM]) 0.30103): 89.449%
Normalized urease activity(%) (H. pylori urease [6]; log(CBS[μM]) 0.69897): 57.604%
Normalized urease activity(%) (H. pylori urease [6]; log(CBS[μM]) 0.845098): 46.6188%
Normalized urease activity(%) (H. pylori urease [6]; log(CBS[μM]) 1): 35.6336%
Normalized urease activity(%) (H. pylori urease [6]; log(CBS[μM]) 1.17609): 22.938%
Normalized urease activity(%) (H. pylori urease [6]; log(CBS[μM]) 1.30103): 10.2424%
Normalized urease activity(%) (H. pylori urease [6]; log(CBS[μM]) 1.39794): 10.165%
Normalized urease activity(%) (H. pylori urease [6]; log(CBS[μM]) 1.47712): 10.0876%
Normalized urease activity(%) (in vitro) (urease [7]; CBS 2.0 μM): 105.5%
Normalized urease activity(%) (in vitro) (urease [7]; CBS 5.0 μM): 122.1%
Normalized urease activity(%) (in vitro) (urease [7]; CBS 10.0 μM): 103.7%
Normalized urease activity(%) (in vitro) (urease [7]; CBS 20.0 μM): 121.2%
Normalized urease activity(%) (in vitro) (urease [7]; CBS 50.0 μM): 96.7%
Normalized urease activity(%) (in vitro) (urease [7]; CBS 100.0 μM): 105.5%
Normalized urease activity(%) (in vitro) (urease [7]; CBS 200.0 μM): 111.5%
Normalized urease activity(%) (in vitro) (urease [8]; CBS 2.0 μM): 102.2%
Normalized urease activity(%) (in vitro) (urease [8]; CBS 5.0 μM): 93.5%
Normalized urease activity(%) (in vitro) (urease [8]; CBS 10.0 μM): 100.7%
Normalized urease activity(%) (in vitro) (urease [8]; CBS 20.0 μM): 99.1%
Normalized urease activity(%) (in vitro) (urease [8]; CBS 50.0 μM): 95.8%
Normalized urease activity(%) (in vitro) (urease [8]; CBS 100.0 μM): 101.3%
Normalized urease activity(%) (in vitro) (urease [8]; CBS 200.0 μM): 99.8%
Normalized urease activity(%) (in vitro) (urease [9]; CBS 25.0 μM): 111.2%
Normalized urease activity(%) (in vitro) (urease [9]; CBS 50.0 μM): 127.8%
Normalized urease activity(%) (in vitro) (urease [9]; CBS 100.0 μM): 125.1%
Normalized urease activity(%) (in vitro) (urease [9]; CBS 200.0 μM): 113.5%
Normalized urease activity(%) (in vitro) (urease [10]; CBS 25.0 μM): 109.8%
Normalized urease activity(%) (in vitro) (urease [10]; CBS 50.0 μM): 113.4%
Normalized urease activity(%) (in vitro) (urease [10]; CBS 100.0 μM): 105.1%
Normalized urease activity(%) (in vitro) (urease [10]; CBS 200.0 μM): 103.9%
Normalized urease activity(%) (in vitro) (urease [11]; CBS 2.0 μM): 87.7%
Normalized urease activity(%) (in vitro) (urease [11]; CBS 5.0 μM): 84.1%
Normalized urease activity(%) (in vitro) (urease [11]; CBS 10.0 μM): 87.2%
Normalized urease activity(%) (in vitro) (urease [11]; CBS 50.0 μM): 91.4%
Normalized urease activity(%) (in vitro) (urease [11]; CBS 100.0 μM): 87.4%
Normalized urease activity(%) (in vitro) (urease [11]; CBS 200.0 μM): 86.8%
Normalized urease activity(%) (in vitro) (urease [12]; CBS 2.0 μM): 117.5%
Normalized urease activity(%) (in vitro) (urease [12]; CBS 5.0 μM): 100.8%
Normalized urease activity(%) (in vitro) (urease [12]; CBS 10.0 μM): 95.4%
Normalized urease activity(%) (in vitro) (urease [12]; CBS 20.0 μM): 96.5%
Normalized urease activity(%) (in vitro) (urease [12]; CBS 50.0 μM): 100.0%
Normalized urease activity(%) (in vitro) (urease [12]; CBS 100.0 μM): 106.8%
Normalized urease activity(%) (in vitro) (urease [12]; CBS 200.0 μM): 98.8%
OD600(pH5) (H. pylori; acidic brucella broth pH 5.0, 24 h, control 0.93): 0.23 and 0.239
OD600 (pH7) (H. pylori; neutral medium, 24 h, control 0.18): 0.127
Normalized cell survival (%) [13]: 65.8% ± 9.9% and 65.7658%
Ammonia in medium [14]: 0.6839 mM
Normalized cell survival (%) [14]: 78.3784%
Normalized urease activity(%) (urease [15]; CBS 20 μM): 63.4%
Normalized urease activity(%) (urease [15]; CBS 50 μM): 37.9%
Normalized urease activity(%) (urease [15]; CBS 100 μM): 37.9%
Normalized urease activity(%) (urease [15]; CBS 200 μM): 25.6%
ureolytic activity compared with that without CBS treatment (urease [15]; [22]): approximately 20%
Normalized urease activity(%) (urease [16]; log(CBS[μM]) 1.29073): 42.0322%
Normalized urease activity(%) (urease [16]; log(CBS[μM]) 1.59176): 39.1227%
Normalized urease activity(%) (urease [16]; log(CBS[μM]) 1.89279): 25.3581%
Normalized urease activity(%) (urease [16]; log(CBS[μM]) 2.19382): 25.0224%
Normalized urease activity(%) (urease [17]; log(CBS[μM]) 0.69897): 76.4151%
Normalized urease activity(%) (urease [17]; log(CBS[μM]) 1): 79.2453%
Normalized urease activity(%) (urease [17]; log(CBS[μM]) 1.30103): 68.1604%
Normalized urease activity(%) (urease [17]; log(CBS[μM]) 1.79588): 36.5566%
Normalized urease activity(%) (in vivo) (urease [18]; CBS 1.5 μM): 92.5%
Normalized urease activity(%) (in vivo) (urease [18]; CBS 3.0 μM): 74.5%
Normalized urease activity(%) (in vivo) (urease [18]; CBS 6.0 μM): 62.3%
Normalized urease activity(%) (in vivo) (urease [18]; CBS 12.0 μM): 64.2%
Normalized urease activity(%) (in vivo) (urease [18]; CBS 25.0 μM): 41.5%
Normalized urease activity(%) (urease [18]; log(CBS[μM]) 0.176091): 92.4528%
Normalized urease activity(%) (urease [18]; log(CBS[μM]) 0.477121): 74.5283%
Normalized urease activity(%) (urease [18]; log(CBS[μM]) 1.39794): 41.5094%
Normalized urease activity(%) (urease [18]; log(CBS[μM]) 3): 16.0377%
Normalized urease activity(%) (urease [18]; log(CBS[μM]) 3.30103): 13.2075%
Normalized urease activity(%) (urease [18]; log(CBS[μM]) 3.60206): 20.7547%
Normalized urease activity(%) (in vitro) (H. pylori urease [19]; CBS 2.0 μM): 102.1%
Normalized urease activity(%) (in vitro) (H. pylori urease [19]; CBS 5.0 μM): 93.2%
Normalized urease activity(%) (in vitro) (H. pylori urease [19]; CBS 10.0 μM): 103.8%
Normalized urease activity(%) (in vitro) (H. pylori urease [19]; CBS 20.0 μM): 86.7%
Normalized urease activity(%) (in vitro) (H. pylori urease [19]; CBS 30.0 μM): 92.9%
Normalized urease activity(%) (in vitro) (H. pylori urease [19]; CBS 50.0 μM): 109.1%
Normalized urease activity(%) (in vitro) (H. pylori urease [19]; CBS 100.0 μM): 102.9%
Normalized urease activity(%) (in vitro) (H. pylori urease [19]; CBS 200.0 μM): 94.9%
inhibitory effect on extracted H. pylori urease (H. pylori urease [19]; CBS up to 400 μM): little inhibitory effect

B1: Helicobacter pylori urease accessory protein UreE (natural protein)
chain: MIIERLVGNLRDLNPLDFSVDHVDLEWFETRKKIARFKTRQGKDIAIRLKDAPKLGLSQGDILFKEEKEIIAVNILDSEVIHIQAKSVAEVAKICYEIGNRHAALYYGESQFEFKTPFEKPTLALLEKLGVQNRVLSSKLDSKERLTVSMPHSEPNFKVSLASDFKVVVK
notes: also called apo-UreE
stoichiometry N [20]: 2

B2: Helicobacter pylori urease accessory protein UreG (natural protein)
chain: MVKIGVCGPVGSGKTALIEALTRHMSKDYDMAVITNDIYTKEDAEFMCKNSVMPRERIIGVETGGCPHTAIREDASMNLEAVEEMHGRFPNLELLLIESGGDNLSATFNPELADFTIFVIDVAEGDKIPRKGGPGITRSDLLVINKIDLAPYVGADLKVMERDSKKMRGEKPFIFTNIRAKEGLDDVIAWIKRNALLED
notes: also called HpUreG; apo-UreG; source: E. coli BL21(DE3), purified (HisTrap Ni-NTA, thrombin cleavage, EDTA, Superdex 75)
stoichiometry N [21]: 2
